Earlier results, collected in paper PMC7657096 (Medical Mycology, 2020).
Values joined by “and” are separate entries in the source; they are usually repeats but may differ in a detail not shown here. Identical values can stand only once. Like-named read-outs stand apart in the source and are kept apart here.

Experiments:
onychomycosis [1] = conditions: after 10 months following weekly application for 9 months
onychomycosis [2] = conditions: after 48 weeks following daily application for 48 weeks; two values
onychomycosis [3] = conditions: topical, applied for 52 weeks; two values
onychomycosis [4] = system: onychomycosis
onychomycosis [5] = conditions: topical solution applied daily for either 24 or 48 weeks
onychomycosis [6] = conditions: after 12 or 24 weeks of oral terbinafine treatment

SMILES: CCC(C)(C)c1ccc(CC(C)CN2C[C@@H](C)O[C@@H](C)C2)cc1 (stereo partly shown) [amorolfine]
- mycological cure (negative culture and negative microscopy) (onychomycosis [1]): 8%

SMILES: Cc1cc(C2CCCCC2)n(O)c(=O)c1 [ciclopirox]
- mycological cure (negative culture and negative microscopy) (onychomycosis [2]): 29% and 36%

SMILES: C=C1CCN([C@H](C)[C@](O)(Cn2cncn2)c2ccc(F)cc2F)CC1 [efinaconazole]
- mycological cure (onychomycosis [3]): 53.4% and 55.2%

SMILES: OB1OCc2cc(F)ccc21 [tavaborole]
- mycological cure (onychomycosis [4]; topical, applied for 52 weeks): 31.1%
- negative culture (onychomycosis [4]; two phase III studies, daily topical treatment for 48 weeks, ref (57)): 87.0% and 85.4%

SMILES: CN(C/C=C/C#CC(C)(C)C)Cc1cccc2ccccc12 [terbinafine]
- mycological cure (onychomycosis [5]): 12.7–18.8%
- trial participants with negative culture after 24 weeks (168 days) (onychomycosis [6]): approximately 80%
